Results as given in the OPERA property sets (Mansouri et al. 2018).

Structure (SMILES) | logP
c1csc(N2CCNCC2)n1 | 0.61
Cc1ccccc1N1CCNCC1 | 2.14
Fc1ccnc(N2CCNCC2)n1 | 0.97
Clc1ccccc1N1CCNCC1 | 2.13
c1cnc(N2CCNCC2)nc1 | 0.49
c1ccc(N2CCNCC2)nc1 | 0.74
Clc1ccc(N2CCNCC2)cc1 | 2.01
FC(F)(F)c1cccc(N2CCNCC2)c1 | 2.43
Clc1cccc(N2CCNCC2)c1 | 2.11
c1ccc2c(N3CCNCC3)nsc2c1 | 2.14
c1ccc2nc(N3CCNCC3)ccc2c1 | 2.04
COc1ccccc1N1CCNCC1 | 1.67
Fc1ccc(N2CCNCC2)cc1 | 1.28
c1ccc(N2CCNCC2)cc1 | 1.1
